These results are taken from patent publication US12448399B2, “Cereblon-based KRAS degrading PROTACs and uses related thereto” (Arvinas Operations, Inc., priority 2023, dated 2025).

Structures are written as SMILES. Some results are limits rather than exact numbers.

This assay deals with T1, KRas-G12D (Homo sapiens, UniProt P01116, G12D).
T1 construct: insert the HiBiT tag onto the N-terminus of one or more of the endogenous KRas alleles; host or cells: AsPC-1 HiBiT-KRasG12D knock-in clone (one tagged allele, two untagged KRasG12D alleles)
The assay is described as follows: HiBiT Degradation Assay (G12D), AsPC-1 HiBiT-KRasG12D cells, 24 hr. Type of assay: cell-based. The conditions noted are these: for Dmax: ASPC1, AsPC-1 cells, maximum degradation observed; for DC50: AsPC-1 cells. The procedure: AsPC-1 (CRL-1682) cells were purchased from ATCC and are homozygous for the G12D mutation in KRas. AsPC-1 cells were cultured in GIBCO RPMI-1640 (ThermoFisher Scientific, catalog #61870-036, with Glutamax, no HEPES, no Na Pyruvate) supplemented with 10% FBS (ThermoFisher Scientific, catalog #2060357) and 1× Penicillin-Streptomycin (ThermoFisher Scientific, catalog #15140122, 10000 U/ml, 100×). For degradation assays, 384 well plates were used. Alamar blue was purchased from ThermoFisher Scientific (A50101) and used according to manufacturer instructions. The Nano-Glo® HiBiT Lytic Detection System and Nano-Glo® HiBiT Blotting System were purchased from Promega (#N3050 and #N2410) and used according to manufacturer instructions.
To create the AsPC-1 HiBiT-KRasG12D cell line, CRISPR-Cas9 was used to insert the HiBiT tag onto the N-terminus of one or more of the endogenous KRas alleles. See Schwinn, M. K. et al. (2018) CRISPR-mediated tagging of endogenous proteins with a luminescent peptide, ACS Chem. Biol. 13(2), 467-474. After knock-in of the tag, individual clones were isolated by single cell dilution and screened for HiBiT insertion by PCR. A clone was identified that contained the desired HiBiT-KRasG12D sequence at one allele while the remaining two KRasG12D alleles were untagged. This clone was used in further studies.
AsPC-1 HiBiT-KRasG12D cells were plated at 9000 or 15,000 cells/well in a 384 well plate (Corning #3770). Compounds of the present disclosure and positive controls were diluted in the appropriate cell media and applied to the plated cells resulting in a final concentration titration of 10 μM to […] in 0.5% DMSO. Gambogic acid was used as a positive control for cytotoxicity and titrated from 10 μM to 78 nM. All assays were performed in triplicate. Cells were treated with compounds for 24 hr at 37° C. in an incubator containing 5% CO2. Following treatment, alamar blue was used to determine if any compounds led to a loss in cell viability after 24 hr. The 10× alamar blue reagent was added to a final concentration of 1× as recommended by the manufacturer and cells were returned to the incubator for 4 hr. Plates were then allowed to equilibrate to RT and fluorescence was measured using a Perkin-Elmer EnVision. After completion of the fluorescence read, the liquid from each well was removed and the cells were washed with PBS. The Nano-Glo® HiBiT detection reagent was prepared according to the manufacturer's instructions and added to each well after the PBS wash was removed. Following incubation at room temperature for 45 min, the luminescence was read using the ultra-sensitive luminescence aperture on the Envision instrument.
Fluorescence values from the alamar blue treatment were normalized to the DMSO-only control for each compound titration. HiBiT luminescence was normalized to the DMSO-only control and the fractional HiBiT signal was plotted versus the log of the PROTAC concentration and fit to a 4-parameter dose-response model to obtain the concentration of the compound that leads to half maximal degradation (DC50) as well as the maximum degradation observed (Dmax, conventionally expressed as a percentage of control).

T1 sequence (P01116 1-188 isoform P01116-2 G12D): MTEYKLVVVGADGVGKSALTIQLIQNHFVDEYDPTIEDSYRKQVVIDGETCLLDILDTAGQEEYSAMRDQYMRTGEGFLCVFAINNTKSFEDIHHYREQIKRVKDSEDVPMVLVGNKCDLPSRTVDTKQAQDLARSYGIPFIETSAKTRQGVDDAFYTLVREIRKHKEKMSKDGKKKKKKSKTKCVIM

Take `C#Cc1c(F)ccc2cc(O)cc(-c3ccc4c(N5CC6CCC(C5)N6)nc(OCCN5CCC(CC6CCN(CC7CCN(c8ccc9c(c8)n(C)c(=O)n9C8CCC(=O)NC8=O)CC7)CC6)CC5)nc4c3F)c12` (centres unmarked) [Compound 237]: the maximal degradation (Dmax) was more than 70% and the DC50 is less than 5.1 µM.
`CCc1c(F)ccc2cc(O)cc(-c3ncc4c(N5CC6CCC(C5)N6)nc(OCCN5CCC6(CC5)CCN(CC5CCN(c7ccc8c(c7)n(C)c(=O)n8C7CCC(=O)NC7=O)CC5)CC6)nc4c3F)c12` (centres unmarked) [Compound 171, 3-(5-{4-[(9-{2-[(4-{3,8-diazabicyclo[3.2.1]octan-3-yl}-7-(8-ethyl-7-fluoro-3-hydroxynaphthalen-1-yl)-8-fluoropyrido[4,3-d]pyrimidin-2-yl)oxy]ethyl}-3,9-diazaspiro[5.5]undecan-3-yl)methyl]piperidin-1-yl}-3-methyl-2-oxo-2,3-dihydro-1H-1,3-benzodiazol-1-yl)piperidine-2,6-dione] displayed a Dmax of more than 70% and a DC50 of less than 5.1 µM.
As to `CCc1cccc2cc(O)cc(-c3ncc4c(N5CC6CCC(C5)N6)nc(OC[C@@H]5C[C@@H](OC6CCN(c7cccc8c7CN(C7CCC(=O)NC7=O)C8=O)CC6)CN5C)nc4c3F)c12` (stereo partly drawn) [Compound 118, 3-[4-(4-{[(3R,5S)-5-{[(4-{3,8-diazabicyclo[3.2.1]octan-3-yl}-7-(8-ethyl-3-hydroxynaphthalen-1-yl)-8-fluoropyrido[4,3-d]pyrimidin-2-yl)oxy]methyl}-1-methylpyrrolidin-3-yl]oxy}piperidin-1-yl)-1-oxo-2,3-dihydro-1H-isoindol-2-yl]piperidine-2,6-dione], the DC50 is more than 1 µM.
`C#Cc1c(F)ccc2cc(O)cc(-c3ncc4c(N5CC6CCC(C5)N6)nc(OCCN5CCC6(CC5)CCN(CC5CCN(c7ccc8c(c7)n(C)c(=O)n8C7CCC(=O)NC7=O)CC5)CC6)nc4c3F)c12` (centres unmarked) [Compound 218, 3-(5-{4-[(9-{2-[(4-{3,8-diazabicyclo[3.2.1]octan-3-yl}-7-(8-ethynyl-7-fluoro-3-hydroxynaphthalen-1-yl)-8-fluoropyrido[4,3-d]pyrimidin-2-yl)oxy]ethyl}-3,9-diazaspiro[5.5]undecan-3-yl)methyl]piperidin-1-yl}-3-methyl-2-oxo-2,3-dihydro-1H-1,3-benzodiazol-1-yl)piperidine-2,6-dione]: the maximal degradation (Dmax) was more than 70% and the 50% degradation concentration (DC50) was less than 5.1 µM.
In the case of `CCc1cccc2cc(O)cc(-c3ncc4c(N5CC6CCC(C5)N6)nc(OCCN5CCC(COCC6CCN(c7ccc8c(c7)C(=O)N(C7CCC(=O)NC7=O)C8=O)CC6)CC5)nc4c3F)c12` (centres unmarked) [Compound 26], the DC50 is 0.25 to 1 µM.
`CCc1c(F)ccc2cc(O)cc(-c3ncc4c(N5CC6CCC(C5)N6)nc(OC[C@@H]5C[C@@H](OC6CCN(CC7CCN(c8ccc9c(c8Cl)CN(C8CCC(=O)NC8=O)C9=O)CC7)CC6)CN5C)nc4c3F)c12` (stereo partly drawn) [Compound 177, 3-(4-chloro-5-{4-[(4-{[(3R,5S)-5-{[(4-{3,8-diazabicyclo[3.2.1]octan-3-yl}-7-(8-ethyl-7-fluoro-3-hydroxynaphthalen-1-yl)-8-fluoropyrido[4,3-d]pyrimidin-2-yl)oxy]methyl}-1-methylpyrrolidin-3-yl]oxy}piperidin-1-yl)methyl]piperidin-1-yl}-1-oxo-2,3-dihydro-1H-isoindol-2-yl)piperidine-2,6-dione] came in with a Dmax of more than 70% and a DC50 of less than 5.1 µM.
For `C#Cc1c(F)ccc2cccc(-c3ncc4c(N5CC6CCC(C5)N6)nc(OCC5(CN6CCC(F)(CN7CCN(c8ccc9c(c8)n(C)c(=O)n9C8CCC(=O)NC8=O)CC7)CC6)CC5)nc4c3F)c12` (centres unmarked) [Compound 228, 3-[5-[4-[[1-[[1-[[4-(3,8-diazabicyclo[3.2.1]octan-3-yl)-7-(8-ethynyl-7-fluoro-1-naphthyl)-8-fluoro-pyrido[4,3-d]pyrimidin-2-yl]oxymethyl]cyclopropyl]methyl]-4-fluoro-4-piperidyl]methyl]piperazin-1-yl]-3-methyl-2-oxo-benzimidazol-1-yl]piperidine-2,6-dione], the DC50 was less than 5.1 µM.
Regarding `C#Cc1c(F)ccc2cc(O)cc(-c3ncc4c(N5CC6CCC(C5)N6)nc(OCCN5CCC(CC6CCN(CC7(F)CCN(c8cccc9c8CN(C8CCC(=O)NC8=O)C9=O)CC7)CC6)CC5)nc4c3F)c12` (centres unmarked) [Compound 125, 3-{4-[4-({4-[(1-{2-[(4-{3,8-diazabicyclo[3.2.1]octan-3-yl}-7-(8-ethynyl-7-fluoro-3-hydroxynaphthalen-1-yl)-8-fluoropyrido[4,3-d]pyrimidin-2-yl)oxy]ethyl}piperidin-4-yl)methyl]piperidin-1-yl}methyl)-4-fluoropiperidin-1-yl]-1-oxo-2,3-dihydro-1H-isoindol-2-yl}piperidine-2,6-dione], the DC50 was less than 5.1 µM.
`CCc1cccc2cc(O)cc(-c3ncc4c(N5CC6CCC(C5)N6)nc(OCCN5CCC(CN6CCC(Oc7cccc8c7C(=O)N(C7CCC(=O)NC7=O)C8=O)CC6)CC5)nc4c3F)c12` (centres unmarked) [Compound 18] gave a Dmax not above 25% and a half-maximal degradation concentration (DC50) of more than 1 µM.
The corresponding values for `C#Cc1c(F)ccc2cc(O)cc(-c3ncc4c(N5CC6CCC(C5)N6)nc(OCCN5CCC(F)(CC6CCN(CC7CCN(c8cccc9c8CN(C8CCC(=O)NC8=O)C9=O)CC7)CC6)CC5)nc4c3F)c12` (centres unmarked) [Compound 124, 3-{4-[4-({4-[(1-{2-[(4-{3,8-diazabicyclo[3.2.1]octan-3-yl}-7-(8-ethynyl-7-fluoro-3-hydroxynaphthalen-1-yl)-8-fluoropyrido[4,3-d]pyrimidin-2-yl)oxy]ethyl}-4-fluoropiperidin-4-yl)methyl]piperidin-1-yl}methyl)piperidin-1-yl]-1-oxo-2,3-dihydro-1H-isoindol-2-yl}piperidine-2,6-dione] are more than 70% and less than 5.1 µM.
`C#Cc1c(F)ccc2cc(O)cc(-c3nc(N4CC5CCC(C4)N5)c4cnc(OCCN5CCC6(CC5)CCN(CC5CCN(c7ccc8c(c7)CN(C7CCC(=O)NC7=O)C8=O)CC5)CC6)nc4c3F)c12` (centres unmarked) [Compound 134] came in with a Dmax of more than 70% and a DC50 of less than 5.1 µM.
The corresponding values for `C#Cc1c(F)ccc2cc(O)cc(-c3ncc4c(N5CC6CCC(C5)N6)nc(OCCN5CCC(CC6CCN(CC7CCN(c8ccc9c(c8F)CN([C@@H]8CCC(=O)NC8=O)C9=O)CC7)CC6)CC5)nc4c3F)c12` [Compound 163, (3R)-3-{5-[4-({4-[(1-{2-[(4-{3,8-diazabicyclo[3.2.1]octan-3-yl}-7-(8-ethynyl-7-fluoro-3-hydroxynaphthalen-1-yl)-8-fluoropyrido[4,3-d]pyrimidin-2-yl)oxy]ethyl}piperidin-4-yl)methyl]piperidin-1-yl}methyl)piperidin-1-yl]-4-fluoro-1-oxo-2,3-dihydro-1H-isoindol-2-yl}piperidine-2,6-dione] are more than 70% and less than 5.1 µM.
The corresponding values for `C#Cc1c(F)ccc2cc(O)cc(-c3ncc4c(N5CC6CCC(C5)N6)nc(OCCN5CCC(CN6CCN(CC7CCN(c8ccc9c(c8)n(C(C)C)c(=O)n9C8CCC(=O)NC8=O)CC7)CC6)CC5)nc4c3F)c12` (centres unmarked) [Compound 222, 3-{5-[4-({4-[(1-{2-[(4-{3,8-diazabicyclo[3.2.1]octan-3-yl}-7-(8-ethynyl-7-fluoro-3-hydroxynaphthalen-1-yl)-8-fluoropyrido[4,3-d]pyrimidin-2-yl)oxy]ethyl}piperidin-4-yl)methyl]piperazin-1-yl}methyl)piperidin-1-yl]-2-oxo-3-(propan-2-yl)-2,3-dihydro-1H-1,3-benzodiazol-1-yl}piperidine-2,6-dione] are more than 70% and less than 5.1 µM.
In turn, `C#Cc1c(F)ccc2cccc(-c3ncc4c(N5CC6CCC(C5)N6)nc(OCCN5CCC(CN6CC7(CCN(c8ccc9c(c8F)CN(C8CCC(=O)NC8=O)C9=O)CC7)C6)CC5)nc4c3F)c12` (centres unmarked) [Compound 155] yielded a half-maximal degradation concentration (DC50) of more than 1 µM.

As a reminder, the Dmax is the greatest extent of degradation seen. As a reminder, the DC50 is the concentration at which degradation of the target reaches its halfway point. Low values mean degradation at low concentration, high ones degradation only at high concentration.
